# Source: ChEMBL document CHEMBL3886670, “ROR modulators and their uses” (2016)
# Target: T1, Nuclear receptor ROR-gamma (Homo sapiens, UniProt P51449)
# T1 sequence (P51449 whole entry): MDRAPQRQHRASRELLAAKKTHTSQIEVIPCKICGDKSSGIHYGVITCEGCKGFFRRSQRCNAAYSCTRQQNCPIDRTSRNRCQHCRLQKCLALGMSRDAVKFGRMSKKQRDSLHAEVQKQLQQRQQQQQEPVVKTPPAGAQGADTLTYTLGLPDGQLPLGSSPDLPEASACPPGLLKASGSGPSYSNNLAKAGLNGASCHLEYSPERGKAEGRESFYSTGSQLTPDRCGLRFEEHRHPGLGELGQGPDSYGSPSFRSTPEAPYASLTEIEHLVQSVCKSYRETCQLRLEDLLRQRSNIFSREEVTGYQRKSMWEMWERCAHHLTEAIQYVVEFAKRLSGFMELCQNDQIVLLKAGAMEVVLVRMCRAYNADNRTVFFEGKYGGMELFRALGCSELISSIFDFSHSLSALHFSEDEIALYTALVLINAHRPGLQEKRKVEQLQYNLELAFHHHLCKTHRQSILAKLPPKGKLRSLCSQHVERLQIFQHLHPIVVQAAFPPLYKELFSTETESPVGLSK
# Assay: Binding Assay: Compound binding to the human RORγ LBD was assessed using the Human RORγ Assay System (INDIGO Biosciences Inc.) as per manufacturer's instructions. Binding to the RORγ LBD was assessed using gradient concentrations of the indicated compounds in a final concentration of 0.5% DMSO.
smiles,measurement,value
CS(=O)(=O)Nc1ccc2c(c1)CCC(=O)N2Cc1ccc(C(O)(C(F)(F)F)C(F)(F)F)cc1,IC50,< 10 µM
